# Experimental data: ChEMBL document CHEMBL4371076 (J Med Chem, 2019)
# The source made the active and inactive calls.
# Legend:
# [1] = Unbound plasma concentration in CD1 mouse model of formalin-induced nociception at 30 mg/kg, ip; format: ADME, organism-based; settings: in vivo
# [2] = Drug uptake in DRG neurons of CD1 mouse model of formalin-induced nociception at 30 mg/kg, ip; format: ADME, organism-based, DRG neuron; settings: in vivo, read-out: Drug uptake
# Mus musculus [3] = test: Analgesic activity in CD1 mouse model of formalin-induced nociception assessed as reduction in formalin-evoked paw flinching/licking response during first phase at 3 to 10 mg/kg, ip pretreated for 30 mins followed by formalin treatment and measured during first 5 mins post formalin injection; format: functional, organism-based
# Mus musculus [4] = test: Analgesic activity in CD1 mouse model of formalin-induced nociception assessed as reduction in formalin-evoked paw flinching/licking response during second phase at 30 mg/kg, ip pretreated for 30 mins followed by formalin treatment and measured during 15 to 45 mins post formalin injection; format: functional, organism-based
# [5] = Plasma concentration in CD1 mouse model of formalin-induced nociception at 30 mg/kg, ip; format: ADME, organism-based; settings: read-out: Cp, in vivo
# [6] = Unbound plasma concentration in CD1 mouse model of chronic constriction injury-induced cold allodynia at 10 mg/kg, ip dosed at 5 weeks post surgery and measured 60 mins post dose; format: ADME, organism-based; settings: in vivo, 1 h
# [7] = Unbound drug level in DRG neurons of CD1 mouse model of formalin-induced nociception at 30 mg/kg, ip; format: ADME, organism-based, DRG neuron; settings: in vivo
# [8] = Toxicity in CD1 mouse model of formalin-induced nociception assessed as hypothermia at 30 mg/kg, ip; format: organism-based; settings: in vivo
# Mus musculus [9] = test: Analgesic activity in CD1 mouse model of formalin-induced nociception assessed as reduction in formalin-evoked paw flinching/licking response during first phase at 30 mg/kg, ip pretreated for 30 mins followed by formalin treatment and measured during first 5 mins post formalin injection; format: functional, organism-based
# [10] = target: Sodium channel protein type 3 subunit alpha (Homo sapiens, UniProt Q9NY46); test: Inhibition of human Nav1.3 expressed in HEK293 cells after 600 secs at -60 mV holding potential by ion works barracuda population patch clamp method; format: cell-based
# Mus musculus [11] = test: Analgesic activity in CD1 mouse model of formalin-induced nociception assessed as reduction in formalin-evoked paw flinching/licking response during second phase at 3 to 10 mg/kg, ip pretreated for 30 mins followed by formalin treatment and measured during 15 to 45 mins post formalin injection; format: functional, organism-based
# [12] = Toxicity in CD1 mouse model of formalin-induced nociception assessed as prostration or sedation at 30 mg/kg, ip; format: organism-based; settings: in vivo
# Mus musculus [13] = test: Analgesic activity in CD1 mouse model of formalin-induced nociception assessed as reduction in formalin-evoked paw flinching/licking response during second phase at 30 mg/kg, po pretreated for 30 mins followed by formalin treatment and measured during 15 to 45 mins post formalin injection; format: functional, organism-based
# [14] = Plasma concentration in CD1 mouse model of formalin-induced nociception at 30 mg/kg, po; format: ADME, organism-based; settings: read-out: Cp, in vivo
# [15] = Toxicity in CD1 mouse model of formalin-induced nociception assessed as hypothermia at 30 mg/kg, po; format: organism-based; settings: in vivo
# [16] = Fraction unbound in rat DRG neurons; format: ADME
# [17] = Drug uptake in DRG neurons of CD1 mouse model of formalin-induced nociception at 30 mg/kg, po; format: ADME, organism-based, DRG neuron; settings: in vivo, read-out: Drug uptake
# Mus musculus [18] = species: Mus musculus; test: Reduction in mechanoreceptor-mediated afferent transmission in mouse sural nerve assessed as decrease in mechanically elicited afferent firing at 30 to 100 uM measured at 20 mins post dose at 1.6 to 980 mN threshold pressure; format: functional, tissue-based
# Sequence of Sodium channel protein type 3 subunit alpha (Q9NY46 whole entry): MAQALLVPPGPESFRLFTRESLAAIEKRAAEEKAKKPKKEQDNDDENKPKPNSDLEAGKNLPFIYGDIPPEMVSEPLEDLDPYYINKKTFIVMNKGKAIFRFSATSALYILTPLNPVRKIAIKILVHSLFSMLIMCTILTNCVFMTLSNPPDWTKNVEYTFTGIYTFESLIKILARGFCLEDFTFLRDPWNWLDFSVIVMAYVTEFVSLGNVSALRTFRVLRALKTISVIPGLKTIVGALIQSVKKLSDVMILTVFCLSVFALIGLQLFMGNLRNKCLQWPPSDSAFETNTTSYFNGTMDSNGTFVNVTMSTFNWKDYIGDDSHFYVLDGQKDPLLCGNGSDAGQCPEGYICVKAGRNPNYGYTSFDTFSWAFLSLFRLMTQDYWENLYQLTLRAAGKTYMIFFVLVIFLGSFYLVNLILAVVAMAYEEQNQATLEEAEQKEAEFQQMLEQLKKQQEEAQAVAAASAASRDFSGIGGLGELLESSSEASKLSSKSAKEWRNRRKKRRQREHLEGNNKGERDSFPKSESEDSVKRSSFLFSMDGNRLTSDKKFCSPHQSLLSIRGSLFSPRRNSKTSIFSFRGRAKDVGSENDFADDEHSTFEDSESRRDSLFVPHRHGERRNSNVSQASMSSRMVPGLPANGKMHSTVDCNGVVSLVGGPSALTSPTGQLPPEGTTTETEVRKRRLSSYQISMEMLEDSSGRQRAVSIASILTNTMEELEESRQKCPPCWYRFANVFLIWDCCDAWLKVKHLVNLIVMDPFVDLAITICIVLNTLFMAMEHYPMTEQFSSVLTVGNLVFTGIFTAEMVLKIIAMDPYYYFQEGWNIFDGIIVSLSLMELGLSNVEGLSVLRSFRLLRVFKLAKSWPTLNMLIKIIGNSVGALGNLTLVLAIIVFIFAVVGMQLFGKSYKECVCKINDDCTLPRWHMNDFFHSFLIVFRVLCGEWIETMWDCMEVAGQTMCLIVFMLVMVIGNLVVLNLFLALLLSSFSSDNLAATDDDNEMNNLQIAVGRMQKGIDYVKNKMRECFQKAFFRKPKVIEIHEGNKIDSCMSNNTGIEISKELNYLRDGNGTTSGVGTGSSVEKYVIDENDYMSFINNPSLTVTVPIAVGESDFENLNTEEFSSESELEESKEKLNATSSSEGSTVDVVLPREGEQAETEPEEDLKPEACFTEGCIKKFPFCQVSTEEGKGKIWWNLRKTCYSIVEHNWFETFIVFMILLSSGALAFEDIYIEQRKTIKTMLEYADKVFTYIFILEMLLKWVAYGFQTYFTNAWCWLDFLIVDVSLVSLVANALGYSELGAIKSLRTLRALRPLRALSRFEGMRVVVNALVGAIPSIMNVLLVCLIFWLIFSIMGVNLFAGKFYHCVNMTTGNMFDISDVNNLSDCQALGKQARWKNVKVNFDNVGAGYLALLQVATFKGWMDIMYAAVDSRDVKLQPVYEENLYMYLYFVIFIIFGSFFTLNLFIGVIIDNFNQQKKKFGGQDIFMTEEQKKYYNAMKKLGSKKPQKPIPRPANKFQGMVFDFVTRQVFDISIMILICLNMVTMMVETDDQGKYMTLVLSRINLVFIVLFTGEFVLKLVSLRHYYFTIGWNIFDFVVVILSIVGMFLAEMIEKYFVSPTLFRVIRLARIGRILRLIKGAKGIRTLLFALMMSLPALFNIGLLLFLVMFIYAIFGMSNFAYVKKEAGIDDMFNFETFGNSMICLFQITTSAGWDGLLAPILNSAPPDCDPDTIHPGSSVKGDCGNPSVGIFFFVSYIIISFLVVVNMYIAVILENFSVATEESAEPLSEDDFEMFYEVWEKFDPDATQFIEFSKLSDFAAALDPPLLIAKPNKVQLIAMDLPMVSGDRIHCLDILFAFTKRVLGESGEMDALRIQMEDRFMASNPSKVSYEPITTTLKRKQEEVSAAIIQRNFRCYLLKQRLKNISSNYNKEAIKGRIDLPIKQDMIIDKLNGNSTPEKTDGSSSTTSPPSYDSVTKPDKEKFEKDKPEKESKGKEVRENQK
Cp(f) [1] [nM],concentration [2] [nM],concentration [5] [nM],Drug uptake(free) [7] [nM],IC50 [10] [µM],concentration [14] [nM],fraction unbound [16],concentration [17] [nM],Activity (Mus musculus [18]),Compound,Activity (Mus musculus [3]),Activity (Mus musculus [4]),Cp(f) [6] [nM],Activity [8],Activity (Mus musculus [9]),Activity (Mus musculus [11]),Activity [12],Activity (Mus musculus [13]),Activity [15]
118,2720,59000,95,> 30,–,–,–,–,CC(C)COc1ncc(-c2cn(C)c3cc(C(=O)NS(C)(=O)=O)ccc23)cc1Cl,inactive,Active,54,Non-Toxic,inactive,inactive,Non-Toxic,–,–
–,–,–,–,–,44000,0.039,990,inactive,CC(C)COc1ccc(-c2cn(C)c3cc(C(=O)NS(C)(=O)=O)c(F)cc23)cn1,–,–,–,–,–,–,–,inactive,Non-Toxic
